We go through 26 compounds from US20230219925A1, “BENZO FIVE-MEMBERED NITROGEN HETEROCYCLIC COMPOUND AND APPLICATION THEREOF” (GUANGZHOU INSTITUTES OF BIOMEDICINE AND HEALTH CHINESE …, priority 2020, published 2023).

For one assay, the target named is T1, RORγ (Homo sapiens, UniProt P51449).
T1 sequence (P51449 269-508 limits assumed): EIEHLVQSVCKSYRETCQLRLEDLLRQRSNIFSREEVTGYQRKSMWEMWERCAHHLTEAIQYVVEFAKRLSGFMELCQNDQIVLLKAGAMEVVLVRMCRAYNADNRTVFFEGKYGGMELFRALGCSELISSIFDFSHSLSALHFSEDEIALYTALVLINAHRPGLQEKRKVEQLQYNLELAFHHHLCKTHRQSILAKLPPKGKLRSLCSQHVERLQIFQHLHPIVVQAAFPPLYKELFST
Put plainly: luciferase dual reporter gene assay, Gal4-RORγLBD in 293T cells.

In a further assay the target is T2, hRORγ (Homo sapiens, UniProt P51449).
T2 sequence (P51449 1-518): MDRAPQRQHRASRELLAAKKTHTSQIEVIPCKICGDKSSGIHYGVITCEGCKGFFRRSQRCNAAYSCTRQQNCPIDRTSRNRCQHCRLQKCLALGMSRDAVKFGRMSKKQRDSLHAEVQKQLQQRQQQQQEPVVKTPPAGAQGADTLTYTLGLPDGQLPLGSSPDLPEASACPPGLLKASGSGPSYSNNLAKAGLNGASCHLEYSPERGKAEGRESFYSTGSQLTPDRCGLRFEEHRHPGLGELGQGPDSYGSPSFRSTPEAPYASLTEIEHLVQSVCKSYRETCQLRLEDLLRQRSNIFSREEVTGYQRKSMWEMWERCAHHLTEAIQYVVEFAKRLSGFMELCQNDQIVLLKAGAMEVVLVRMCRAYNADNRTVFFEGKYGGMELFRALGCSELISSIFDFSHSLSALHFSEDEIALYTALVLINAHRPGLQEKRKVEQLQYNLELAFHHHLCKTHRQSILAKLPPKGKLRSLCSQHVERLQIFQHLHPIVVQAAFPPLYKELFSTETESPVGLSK
The assay can be described thus: protein thermal stability shift assay (TSA).

Where [1] appears, read: IC50 (luciferase detection technique), RORγ transcriptional activity, Table 1.
[2] abbreviates: read-out: ΔTm (TSA detection technique), hRORγ 10 μM, compound 200 μM.
Setting [3] is: read-out: ΔTm (TSA detection technique).

Where two headings read alike, the source gives them in different places.

In the case of `CCS(=O)(=O)c1ccc(C(NC(C)=O)C(=O)Nc2ccc(-c3nc4ccc(C)cc4n3[C@@H](C)c3ccc(C)cc3)cc2)cc1` (single isomer, unassigned) [Example 75], the IC50 (usually the concentration needed to halve the response being measured) on RORγ (setting [1]) fell in the range of 100 to 1000 nM.
Turning to `Cc1ccc2nc(-c3ccc(NS(=O)(=O)c4ccc([N+](=O)[O-])cc4)cc3)sc2c1` [Example 5, N-(4-(6-methylbenzo[d]thiazol-2-yl)phenyl)-4-nitrobenzenesulfonamide], on RORγ (setting [1]), the IC50 was in the range of 1000 to 10000 nM. The ΔTm (as a rule, the shift of the melting midpoint relative to a reference) at 200 µM at hRORγ (setting [2]) was < 5 °C.
The like results for `Cc1cc(C)c(S(=O)(=O)Nc2ccc(-c3nc4ccc(C)cc4s3)cc2)c(C)c1` [Example 10, 2,4,6-trimethyl-N-(4-(6-methylbenzo[d]thiazol-2-yl)phenyl)benzenesulfonamide] were, in that order, 1000 to 10000 nM and > 10 °C.
Consider `CCN1C(=O)c2cccc3c(S(=O)(=O)Nc4ccc(-c5nc6ccc(C)cc6s5)cc4)ccc1c23` [Example 11, 1-ethyl-N-(4-(6-methylbenzo[d]thiazol-2-yl)phenyl)-2-oxo-1,2-dihydrobenzo[cd]indol-6-sulfonamide], for which the IC50 at RORγ fell in the range of 10000 to 100000 nM. The ΔTm at 200 µM on hRORγ (setting [3]) was > 10 °C.
`Cc1ccc(CS(=O)(=O)Nc2ccc(-c3nc4ccc(C)cc4s3)cc2)cc1` [Example 12, N-(4-(6-methylbenzo[d]thiazol-2-yl)phenyl)-1-(p-tolyl)methanesulfonamide] showed an IC50 against RORγ (setting [1]) of 1000 to 10000 nM. In addition, the ΔTm at 200 µM on hRORγ (setting [2]) was > 10 °C.
For `Cc1ccc2nc(-c3ccc(NS(=O)(=O)Cc4ccc(C#N)cc4)cc3)sc2c1` [Example 16, 1-(4-cyanophenyl)-N-(4-(6-methylbenzo[d]thiazol-2-yl)phenyl)methanesulfonamide] the same measures were 1000 to 10000 nM and > 10 °C.
Compound `Cc1ccc2nc(-c3ccc(NS(=O)(=O)Cc4cccc(N)c4)cc3)sc2c1` [Example 24, 1-(3-aminophenyl)-N-(4-(6-methylbenzo[d]thiazol-2-yl)phenyl)methane sulfonamide] yielded an IC50 at RORγ (setting [1]) of 10000 to 100000 nM. In addition, the shift in melting temperature (ΔTm) at 200 µM on hRORγ (setting [2]) is > 10 °C.
For `CCCCCCC(=O)Nc1ccc(-c2nc3ccc(C)cc3s2)cc1` [Example 26, N-(4-(6-methylbenzo[d]thiazol-2-yl)phenyl)heptanamide] the same measures were < 100 nM and > 10 °C.
On to `Cc1ccc(CC(=O)Nc2ccc(-c3nc4ccc(C)cc4s3)cc2)cc1` [Example 27, N-(4-(6-methylbenzo[d]thiazol-2-yl)phenyl)-2-(p-tolyl)acetamide], for which the IC50 at RORγ (setting [1]) is 10000 to 100000 nM. The ΔTm at 200 µM at hRORγ (setting [2]) was > 10 °C.
`CCS(=O)(=O)c1ccc(CC(=O)Nc2ccc(-c3nc4ccc(C)cc4s3)c(Cl)c2)cc1` [Example 29, N-(3-chloro-4-(6-methylbenzo[d]thiazol-2-yl)phenyl)-2-(4-(ethylsulfonyl)phenyl) acetamide] had an IC50 against RORγ (setting [1]) of 100 to 1000 nM. For the same compound, at hRORγ (setting [2]), the ΔTm at 200 µM lay in the range of 5 to 10 °C.
The like results for `CCS(=O)(=O)c1ccc(CC(=O)Nc2ccc(-c3nc4ccc(F)cc4s3)cc2)cc1` [Example 30, 2-(4-(ethylsulfonyl)phenyl)-N-(4-(6-fluorobenzo[d]thiazol-2-yl)phenyl)acetamide] were, in that order, 1000 to 10000 nM and 5 to 10 °C.
Turning to `CCS(=O)(=O)c1ccc(CC(=O)Nc2ccc(-c3nc4ccc(OC)cc4s3)cc2)cc1` [Example 31, 2-(4-(ethylsulfonyl)phenyl)-N-(4-(6-methoxybenzo[d]thiazol-2-yl)phenyl) acetamide], the IC50 against RORγ (setting [1]) lay in the range of 10000 to 100000 nM. Moreover, the ΔTm at 200 µM on hRORγ (setting [2]) fell in the range of 5 to 10 °C.
The like results for `CCS(=O)(=O)c1ccc(CC(=O)Nc2ccc(-c3nc4ccc(C)cc4n3Cc3ccc(C#N)cc3)cc2)cc1` [Example 49, N-(4-(1-(4-cyanobenzyl)-6-methyl-1H-benzo[d]imidazol-2-yl)phenyl)-2-(4-(ethylsulfonyl)phenyl)acetamide] were, in that order, < 100 nM and 5 to 10 °C.
For `CCS(=O)(=O)c1ccc(CC(=O)Nc2ccc(-c3nc4ccc(Cl)cc4n3Cc3ccccc3)cc2)cc1` [Example 52] the same measures were < 100 nM and < 5 °C.
The like results for `CCS(=O)(=O)c1ccc(CC(=O)Nc2ccc(-c3nc4cc(Cl)ccc4n3Cc3ccccc3)cc2)cc1` [Example 53] were, in that order, < 100 nM and 5 to 10 °C.
As to `CCS(=O)(=O)c1ccc(CC(=O)Nc2ccc(-c3nc4ccc(C(=O)NC5CCCC5)cc4n3[C@H](C)c3ccc(C)cc3)cc2)cc1` [Example 70, (R)—N-cyclopentyl-2-(4-(2-(4-(ethylsulfonyl)phenyl)acetylamino)phenyl)-1-(1-(p-tolyl)ethyl)-1H-benzo[d]imidazol-6-formamide], at RORγ (setting [1]), the IC50 is < 100 nM. In addition, the ΔTm at 200 µM at hRORγ (setting [2]) is 5 to 10 °C.
On to `CCS(=O)(=O)c1ccc(CC(=O)Nc2ccc(-c3nc4cc(C(=O)NC5CCCC5)ccc4n3[C@H](C)c3ccc(C)cc3)cc2)cc1` [Example 72, (R)—N-cyclopentyl-2-(4-(2-(4-(ethylsulfonyl)phenyl)acetylamino)phenyl)-1-(1-(p-tolyl)ethyl)-1H-benzo[d]imidazol-5-formamide], for which the IC50 at RORγ (setting [1]) is < 100 nM. Also, the ΔTm at 200 µM at hRORγ (setting [2]) was in the range of 5 to 10 °C.
For `CCS(=O)(=O)c1ccc(C(NC(C)=O)C(=O)Nc2ccc(-c3nc4ccc(C)cc4n3[C@@H](C)c3ccc(C)cc3)cc2)cc1` (stereo partly drawn) [Example 73, 2-acetylamino-2-(4-(ethylsulfonyl)phenyl)-N-(4-(6-methyl-1-((S)-1-(p-tolyl)ethyl)-1H-benzo[d]imidazol-2-yl)phenyl)acetamide] the same measures were < 100 nM and < 5 °C.
Turning to `CCCCCn1c(-c2ccc(NC(=O)C(NC(C)=O)c3ccc(S(=O)(=O)CC)cc3)cc2)nc2ccc(C)cc21` (stereo not drawn) [Example 76, 2-acetylamino-2-(4-(ethylsulfonyl)phenyl)-N-(4-(6-methyl-1-pentyl-1H-benzo[d]imidazol-2-yl)phenyl)acetamide], at RORγ (setting [1]), the IC50 was < 100 nM. The ΔTm at 200 µM at hRORγ (setting [2]) is < 5 °C.
The like results for `CCS(=O)(=O)c1ccc(C(NC(C)=O)C(=O)Nc2ccc(-c3nc4ccc(C)cc4n3[C@H](C)c3ccc(C)cc3)cc2)cc1` (stereo partly drawn) [Example 77, 2-acetylamino-2-(4-(ethylsulfonyl)phenyl)-N-(4-(6-methyl-1-((R)-1-(p-tolyl)ethyl)-1H-benzo[d]imidazopyridin-2-yl)phenyl)acetamide] were, in that order, < 100 nM and < 5 °C.
Regarding `CCS(=O)(=O)c1ccc(C(NC(C)=O)C(=O)Nc2ccc(-c3nc4cc(C(=O)NC(C)C)ccc4n3[C@H](C)c3ccc(C)cc3)cc2)cc1` (stereo partly drawn) [Example 78, 2-(4-(2-acetylamino-2-(4-(ethylsulfonyl)phenyl)acetylamino)phenyl)-N-isopropyl-1-((R)-1-(p-tolyl)ethyl)-1H-benzo[d]imidazol-5-formamide], the IC50 against RORγ (setting [1]) lay in the range of 1000 to 10000 nM. The ΔTm at 200 µM on hRORγ (setting [2]) lay in the range of 5 to 10 °C.
`CCS(=O)(=O)c1ccc(C(NC(C)=O)C(=O)Nc2ccc(-c3nc4cc(C(=O)NC(C)C)ccc4n3[C@@H](C)c3ccc(C)cc3)cc2)cc1` (stereo partly drawn) [Example 79, 2-(4-(2-acetylamino-2-(4-(ethylsulfonyl)phenyl)acetylamino)phenyl)-N-isopropyl-1-((S)-1-(p-tolyl)ethyl)-1H-benzo[d]imidazol-5-formamide]: at RORγ (setting [1]), the IC50 is 1000 to 10000 nM. The ΔTm at 200 µM at hRORγ (setting [2]) lay in the range of 5 to 10 °C.
Take `CCS(=O)(=O)c1ccc(C(NC(C)=O)C(=O)Nc2ccc(-c3nc4ccc(C)cc4n3[C@@H](C)c3ccc(C)cc3)nc2)cc1` (stereo partly drawn) [Example 80, 2-acetylamino-2-(4-(ethylsulfonyl)phenyl)-N-(6-(6-methyl-1-((S)-1-(p-tolyl)ethyl)-1H-benzo[d]imidazol-2-yl)pyridin-3-yl)acetamide]: at RORγ, the IC50 was < 100 nM. The ΔTm at 200 µM on hRORγ (setting [3]) was < 5 °C.
The like results for `CCCCCn1c(-c2ccc(NC(=O)C(NC(C)=O)c3ccc(S(=O)(=O)CC)cc3)cn2)nc2ccc(C)cc21` (stereo not drawn) [Example 81, 2-acetylamino-2-(4-(ethylsulfonyl)phenyl)-N-(6-(6-methyl-1-pentyl-1H-benzo[d]imidazol-2-yl)pyridin-3-yl)acetamide] were, in that order, < 100 nM and < 5 °C.
As for `CCS(=O)(=O)c1ccc(C(NC(C)=O)C(=O)Nc2ccc(-c3nc4ccc(C)cc4n3[C@H](C)c3ccc(C)cc3)nc2)cc1` (stereo partly drawn) [Example 82, 2-acetylamino-2-(4-(ethylsulfonyl)phenyl)-N-(6-(6-methyl-1-((R)-1-(p-tolyl)ethyl)-1H-benzo[d]imidazol-2-yl)pyridin-3-yl)acetamide], the IC50 against RORγ was < 100 nM. Moreover, at hRORγ (setting [3]), the ΔTm at 200 µM was < 5 °C.
In turn, `CCS(=O)(=O)c1ccc(C(NC(C)=O)C(=O)Nc2ccc(-c3nc4cc(C(=O)NC(C)C)ccc4n3[C@H](C)c3ccc(C)cc3)nc2)cc1` (stereo partly drawn) [Example 83, 2-(5-(2-acetylamino-2-(4-(ethylsulfonyl)phenyl)acetylamino)pyridin-2-yl)-N-isopropyl-1-((R)-1-(p-tolyl)ethyl)-1H-benzo[d]imidazol-5-formamide] registered an IC50 on RORγ (setting [1]) of 1000 to 10000 nM. The thermal shift (ΔTm) at 200 µM at hRORγ (setting [2]) is < 5 °C.
